Our source for the IC50 values is ChEMBL document CHEMBL1141972, “4'C-ethynyl-thymidine acts as a chain terminator during DNA-synthesis catalyzed by HIV-1 reverse transcriptase” (Bioorg Med Chem Lett, 2005).

Usually IC50 stands for the concentration that inhibits the measured activity by half. A lower IC50 goes with greater potency.

The target in this experiment is Human immunodeficiency virus type 1 reverse transcriptase (Human immunodeficiency virus 1, UniProt Q72547). The experiment is described as follows: Inhibitory concentration against human immunodeficiency virus type 1 reverse transcriptase.

For the molecule `C#C[C@]1(COP(=O)(O)OP(=O)(O)OP(=O)(O)O)O[C@@H](n2cc(C)c(=O)[nH]c2=O)C[C@@H]1O`, the IC50 turned out to be 3280 nM. Molecule `Cc1cn([C@H]2C[C@H](N=[N+]=[N-])[C@@H](CO[P@](=O)(O)O[P@](=O)(O)OP(=O)(O)O)O2)c(=O)[nH]c1=O` [ZIDOVUDINE TRIPHOSPHATE] showed a concentration for half-maximal inhibition (IC50) of 2100 nM.
